Results from patent US20210114029A1, “DEVICES, SYSTEMS, AND METHODS FOR HIGH THROUGHPUT SINGLE CELL ANALYSIS” (Duke University, priority 2017, published 2021).

Assays:
K562 cells = assay: Growth of K562 single cell colonies in microfluidic trap array in the presence of Imatinib; format: cell-based; conditions: K562 cells grown with 0.1 μM, 0.3 μM, 0.5 μM Imatinib or control; FIG. 20
Text: (§1) Cells were introduced to the array and transferred to the interior chambers with a gentle trap and transfer technique that is similar to previously reported methods (Dura, et al. (2014), “Deformability-based microfluidic cell pairing and fusion”, Lab. Chip 14:2783). Specifically, we first captured cells at the entrance of the traps, and next transferred the cells into the chambers with a brief pressure burst, causing the cells to squeeze through the narrow constrictions and move into the interior chambers. The widths of the constrictions were adjusted in the range of 3-6 microns, depending on the cell type the device was designed to capture. […] Flow control was achieved by adjusting negative pressure at the outlet, which allowed cells to be pipetted directly in the inlet reservoir with minimal losses from dead volume. Additionally, this approach allowed us to wash the cells from the inlet reservoir once the array was fully populated. […]
(§2) Cells were imaged twice per day and immediately returned to the incubator after each imaging cycle, requiring around 5-10 minutes for each chip. After 7 days, the imaging dataset was analyzed by custom computer vision software written in Python using a pre-trained Mask_RCNN image segmentation model. […]

MOLM 13 cells = assay: Growth of MOLM 13 cells in microfluidic chambers in the presence of Quizartinib; format: cell-based; conditions: drug vs control medium, images FIG. 22A/22B
Text: as §1, §2

Row | Compound | growth rate distribution of colonies (K562 cells) | outgrowth of clones in the presence of the drug (MOLM 13 cells)
1 | Cc1ccc(NC(=O)c2ccc(CN3CCN(C)CC3)cc2)cc1Nc1nccc(-c2cccnc2)n1 [Imatinib] | decreased growth rate with increasing drug concentration | –
2 | CC(C)(C)c1cc(NC(=O)Nc2ccc(-c3cn4c(n3)sc3cc(OCCN5CCOCC5)ccc34)cc2)no1 [Quizartinib] | – | A single clone is observed to grow out in the presence of the drug
